Values after ≈ are worked out from the molar mass of the structure shown.
Legend:
Format in all cases: cell-based
Prevotella spp. = test: Agar dilution MIC, 30 clinical isolates; settings: 30 Prevotella spp. clinical isolates
Enterobacter aerogenes = test: Broth microdilution MIC, 50 clinical isolates
Procedure, shortened: (§1)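 Medium: cation-adjusted MHB, plus 3% lysed horse blood for streptococci, which were incubated with CO2 planchets. Final inoculum approx. 5×10^5 CFU/mL; serial two-fold drug dilutions per CLSI.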

Proteus mirabilis = test: Broth microdilution MIC, 50 clinical isolates
Procedure, shortened: as §1

Pseudomonas aeruginosa = test: Broth microdilution MIC, 50 clinical isolates
Procedure, shortened: as §1

Cc1ncc([N+](=O)[O-])n1CCO [MTZ]
% R (Prevotella spp.): 3% | % S (Prevotella spp.): 97% | MIC50 (Prevotella spp.): 1 µg/mL (≈ 5.84 µM) | MIC90 (Prevotella spp.): 8 µg/mL (≈ 46.7 µM) | MIC range (Prevotella spp.): 0.12 to 32 µg/mL | Mode (Prevotella spp.; modal MIC): 1 µg/mL

piperacillin/tazobactam [piperacillin-tazobactam]
% I (Enterobacter aerogenes): 16% | % R (Enterobacter aerogenes): 8% | % S (Enterobacter aerogenes): 76% | MIC50 (Enterobacter aerogenes): 4 µg/mL | MIC90 (Enterobacter aerogenes): 64 µg/mL | Mode (Enterobacter aerogenes): 2 µg/mL | Cumulative percentage of isolates inhibited at MIC (Enterobacter aerogenes; 1 μg/mL): 4.0% | Number of test isolates at MIC (Enterobacter aerogenes; 1 μg/mL): 2 | Cumulative percentage of isolates inhibited at MIC (Enterobacter aerogenes; 2 μg/mL): 38.0% | Number of test isolates at MIC (Enterobacter aerogenes; 2 μg/mL): 17 | Cumulative percentage of isolates inhibited at MIC (Enterobacter aerogenes; 4 μg/mL): 62.0% | Number of test isolates at MIC (Enterobacter aerogenes; 4 μg/mL): 12 | Cumulative percentage of isolates inhibited at MIC (Enterobacter aerogenes; 8 μg/mL): 74.0% | Number of test isolates at MIC (Enterobacter aerogenes; 8 μg/mL): 6 | Cumulative percentage of isolates inhibited at MIC (Enterobacter aerogenes; 16 μg/mL): 76.0% | Number of test isolates at MIC (Enterobacter aerogenes; 16 μg/mL): 1 | Cumulative percentage of isolates inhibited at MIC (Enterobacter aerogenes; 32 μg/mL): 88.0% | Number of test isolates at MIC (Enterobacter aerogenes; 32 μg/mL): 6 | Cumulative percentage of isolates inhibited at MIC (Enterobacter aerogenes; 64 μg/mL): 92.0% | Number of test isolates at MIC (Enterobacter aerogenes; 64 μg/mL): 2 | Cumulative percentage of isolates inhibited at MIC (Enterobacter aerogenes; 128 μg/mL): 98.0% | Number of test isolates at MIC (Enterobacter aerogenes; 128 μg/mL): 3 | Cumulative percentage of isolates inhibited at MIC (Enterobacter aerogenes; >128 μg/mL): 100.0% | Number of test isolates at MIC (Enterobacter aerogenes; >128 μg/mL): 1 | % S (Proteus mirabilis): 100% | MIC50 (Proteus mirabilis): 0.25 µg/mL | MIC90 (Proteus mirabilis): 1 µg/mL | MIC range (Proteus mirabilis): ≤0.12 to 2 µg/mL | Mode (Proteus mirabilis): 0.25 µg/mL | Cumulative percentage of isolates inhibited at MIC (Proteus mirabilis; 0.5 μg/mL): 82.0% | Number of test isolates at MIC (Proteus mirabilis; 0.5 μg/mL): 16 | Cumulative percentage of isolates inhibited at MIC (Proteus mirabilis; 1 μg/mL): 96.0% | Number of test isolates at MIC (Proteus mirabilis; 1 μg/mL): 7 | Cumulative percentage of isolates inhibited at MIC (Proteus mirabilis; 2 μg/mL): 100.0% | Number of test isolates at MIC (Proteus mirabilis; 2 μg/mL): 2 | Cumulative percentage of isolates inhibited at MIC (Proteus mirabilis; […]): 50.0% | Number of test isolates at MIC (Proteus mirabilis; […]): 22 | Cumulative percentage of isolates inhibited at MIC (Proteus mirabilis; ≤[…]): 6.0% | Number of test isolates at MIC (Proteus mirabilis; ≤[…]): 3 | % I (Pseudomonas aeruginosa): 14% | % R (Pseudomonas aeruginosa): 22% | % S (Pseudomonas aeruginosa): 64% | MIC50 (Pseudomonas aeruginosa): 8 µg/mL | MIC90 (Pseudomonas aeruginosa): >128 µg/mL | Mode (Pseudomonas aeruginosa): 4 µg/mL | Cumulative percentage of isolates inhibited at MIC (Pseudomonas aeruginosa; 2 μg/mL): 6.0% | Number of test isolates at MIC (Pseudomonas aeruginosa; 2 μg/mL): 3 | Cumulative percentage of isolates inhibited at MIC (Pseudomonas aeruginosa; 4 μg/mL): 40.0% | Number of test isolates at MIC (Pseudomonas aeruginosa; 4 μg/mL): 17 | Cumulative percentage of isolates inhibited at MIC (Pseudomonas aeruginosa; 8 μg/mL): 60.0% | Number of test isolates at MIC (Pseudomonas aeruginosa; 8 μg/mL): 10 | Cumulative percentage of isolates inhibited at MIC (Pseudomonas aeruginosa; 16 μg/mL): 64.0% | Number of test isolates at MIC (Pseudomonas aeruginosa; 16 μg/mL): 2 | Cumulative percentage of isolates inhibited at MIC (Pseudomonas aeruginosa; 32 μg/mL): 74.0% | Number of test isolates at MIC (Pseudomonas aeruginosa; 32 μg/mL): 5 | Cumulative percentage of isolates inhibited at MIC (Pseudomonas aeruginosa; 64 μg/mL): 78.0% | Number of test isolates at MIC (Pseudomonas aeruginosa; 64 μg/mL): 2 | Cumulative percentage of isolates inhibited at MIC (Pseudomonas aeruginosa; 128 μg/mL): 84.0% | Number of test isolates at MIC (Pseudomonas aeruginosa; 128 μg/mL): 3 | Cumulative percentage of isolates inhibited at MIC (Pseudomonas aeruginosa; >128 μg/mL): 100.0% | Number of test isolates at MIC (Pseudomonas aeruginosa; >128 μg/mL): 8
